Test results published in patent US20250388597A1, “BIFUNCTIONAL PHOTOCROSSLINKING PROBES FOR COVALENT CAPTURE OF PROTEIN-NUCLEIC ACID COMPLEXES IN CELLS” (UNIVERSITY OF SOUTHERN CALIFORNIA, priority 2022, published 2025).
Entries after “also recorded” stand apart in the source; their conditions may differ.

Tests used:
[1] = Precipitation of probe in the aqueous crosslinking reaction; type: physicochemical; conditions: aqueous binding reaction; SPB-AAD 125 μM (FIG. 7 lanes 4, 9); SPB-PEG3-AAD 100 μM (FIG. 8C lanes 2, 6)
Experimental: The robust stability of these complexes under strong denaturing conditions (2% SDS and boiling for 10 min) is consistent with the covalent nature of the crosslinking reaction as designed in BFPX. […] As the probe concentration increased, more crosslinked protein/DNA complexes were formed, and the multiple bands likely represented protein-DNA complexes with various degrees of crosslinking, because multiple SPB-AAD molecules could bind the flanking region of the DNA binding sites and engage crosslinking reactions with the protein. At high probe concentrations (lane 5 and lane 10), the complexes become more uniform, likely due to the saturation binding of the BFPX probe to DNA.
For the BFPX probe SPB-PEG3-AAD, when the probe concentration was sufficiently high (lane 3 and lane 7 of FIG. 8C), the crosslinking efficiency was more than 90% for the MEF2/DNA complex based on the DNA signal (comparing lane 3 and lane 1 in the 5FAM gel, the free DNA in lane 3 was nearly all gone as compared the strong band in lane 1). This is consistent with the protein signal (compare lane 3 and lane 1 in the CCB-250 stained gel, the free protein in lane 3 was very faint as compared with the strong band in lane 1).

NFAT1/DNA complex = target: T1, NFAT1/DNA complex (Homo sapiens, UniProt Q13469); test: In vitro photo-crosslinking of assembled NFAT1/DNA complex, denaturing SDS gel; type: biochemical; conditions: for formation of covalent NFAT1/DNA crosslinked complex stable under denaturing SDS-PAGE: probe + UV 365 nm, 2% SDS, boil 10 min
T1 construct: human NFAT1 protein (residue 399-676, NFAT1-DBD)
T1 sequence (Q13469 399-676): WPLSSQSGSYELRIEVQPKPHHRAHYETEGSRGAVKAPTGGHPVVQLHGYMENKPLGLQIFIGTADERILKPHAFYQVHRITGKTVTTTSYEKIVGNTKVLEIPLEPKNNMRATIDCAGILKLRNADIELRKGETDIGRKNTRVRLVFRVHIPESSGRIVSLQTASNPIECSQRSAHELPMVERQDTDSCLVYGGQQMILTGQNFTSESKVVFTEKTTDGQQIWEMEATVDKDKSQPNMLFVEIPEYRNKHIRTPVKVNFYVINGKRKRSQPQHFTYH
Experimental: The probe binding and UV crosslinking were carried out as described in FIG. 5G and FIG. 7. The crosslinked complexes (lane 3 and lane 6) were further treated with DTT (100 mM, heat 50 degree C. for 30 min). The reaction mixtures were run on SDS gel and visualized by FAM fluorescence for DNA (top) and by Coomassie blue stain for protein (bottom) as described in FIG. 7. FIG. 7 depicts denaturing SDS gel analysis of covalent capture of in vitro assembled MEF2/DNA and NFAT1/DNA complexes by the BFPX probe, SPB-AAD. […] The protein/DNA complexes are incubated at room temperature for 30 min, and treated with various combination of BFPX probe (SPB-AAD) and UV illumination as described in FIG. 5G. […] The reaction mixtures were added SDS loading dye (2% SDS), boil for 10 min, and run on SDS gel (Bio-Rad Any Kd gradient gel). The same gel was visualized by FAM fluorescence for DNA (top) and by Coomassie blue stain for protein (bottom). FIG. 8C depicts denaturing SDS gel analysis of covalent capture of in vitro assembled MEF2/DNA and NFAT1/DNA complexes by the BFPX probe, SPB-PEG3-AAD. […] The reaction mixtures were run on SDS gel and visualized by FAM fluorescence for DNA (top) and by Coomassie blue stain for protein (bottom) as described in FIG. 7. […] Typically protein and DNA are mixed to bind at room temperature for 30 min, followed by addition of BFPX probes for an additional 15 min and then UV illumination. In the case of FA treatment, the reaction time is 10 min at room temperature and then quenched by 250 mM glycine. […] The UV illumination (as indicated by a positive sign) was carried out using a LED Chip (21.4 mm×21.4 mm, 365-370 nm, 30 Watt, sample distance 2 cm, exposure time 2-15 min at 4 degree C., here the exposure time is 15 min). […] The small amount of single stranded DNA is due to incomplete annealing. The higher smearing bands are most likely non-specific protein complexes. Neither of these experimental imperfections affected the main conclusion of this experiment because the double stranded-DNA bands and the specific NFAT-DNA complex bands (the middle sharp bands) are well defined and can be monitored without the interference of the other bands. […] The gel was visualized by Cy5 fluorescence for DNA. FIG. 12E depicts further characterization of BFPX crosslinking of NFAT1/DNA complexes using different DNA substrates and staining techniques. Two unlabeled DNA substrates containing a core NFAT-binding site and different flanking bases and sequence lengths ([…] ID NO: 4), 21 mer, c2: [NT] ID NO: 5), 16 mer) were used to bind the NFAT1-DBD as described in FIG. 12C. […] The reactions were then analyzed by SDS PAGE under denaturing condition as described in FIG. 12D. Because the DNA is unlabeled, the gel was stained using either cyanine-based dye (SYBR Safe) or Coomassie Blue stain (CB). […] The different size of the NFAT-c1DNA complexes (lane 2) and NFAT-c2DNA complexes (lane 4) was resolved by loading reactions of lane 2 (2a, 2b and 2c) and lane 4 (4a, 4b and 4c) as triplicates side-by-side on the same gel (lower panel) using either SYBR and CB stain. FIG. 12F depicts time course of BFPX crosslinking of NFAT1/DNA complexes. […] The reactions at different time points were then analyzed on SDS gel as described in FIG. 12D. […] When the UV exposure time is longer than 5 min, a significant amount of crosslinked NFAT-DNA complex can be formed with UV illumination without SPB-AAD.

Compound | precipitation of probe at highest probe concentration [1] | low probe concentration at which a significant amount of crosslinked protein complex was observed (NFAT1/DNA complex; NFAT1/DNA, FIG. 7 lane 12, UV 365 nm) | UV illumination time at which crosslinked complex was visible (NFAT1/DNA complex; NFAT1/DNA, probe 100 μM) | UV illumination time at which crosslinking reached plateau (NFAT1/DNA complex; NFAT1/DNA, probe 100 μM, plateau around 100 seconds and 5 min time points) | formation of covalent NFAT1/DNA crosslinked complex stable under denaturing SDS-PAGE (NFAT1/DNA complex)
C#CCCC1(CCNC(=O)CCCOc2c3occc3cc3ccc(=O)oc23)N=N1 [SPB-AAD, N-(2-(3-(but-3-yn-1-yl)-3H-diazirin-3-yl)ethyl)-4-((7-oxo-7H-furo[3,2-g]chromen-9-yl)oxy)butanamide] | precipitation of the probe in an aqueous solution | 0.125 µM | 3 s | around 100 seconds | dosage dependent crosslinking of NFAT1/DNA complexes; also recorded: formation of complexes that run as larger molecular species than both free protein and DNA; also recorded: NFAT was crosslinked to c1 DNA (lane 2) and c2 DNA (lane 4) in the presence of UV
C#CCCC1(CCNC(=O)CCOCCOCCOCCC(=O)NCCNC(=O)CCCOc2c3occc3cc3ccc(=O)oc23)N=N1 [SPB-PEG3-AAD] | the probe precipitated out of solution | – | – | – | highly efficient crosslinking
C#CCCC1(CCNC(=O)CCOCCOCCOCCOCCNC(=O)CCCOc2c3occc3cc3ccc(=O)oc23)N=N1 [SPB-PEG4-AAD, N-(2-(3-(but-3-yn-1-yl)-3H-diazirin-3-yl)ethyl)-1-(4-((7-oxo-7H-furo[3,2-g]chromen-9-yl)oxy)butanamido)-3,6,9,12-tetraoxapentadecan-15-amide] | – | – | – | – | dosage dependent crosslinking of NFAT1/DNA complexes
